From ChEMBL document CHEMBL1201862, “PubChem BioAssay data set” (2004)
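In this assay, cells in 96-well plates receive the compound at five concentrations for 48 hours. Endpoints are linearly interpolated between the surrounding concentrations. Here, GI50 denotes the concentration required for 50% inhibition of growth.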 Calls of active or inactive are those of the source. No stated cut-off is given here; in the data, active = GI50 up to about 1.1 µM and inactive = higher.

Experiments:
Assay in all cases: NCI-60 cell line screen, 48 h
OVCAR-5 = tested on: OVCAR-5
MOLT-4 = tested on: MOLT-4
IGROV-1 = tested on: IGROV-1
SNB-75 = tested on: SNB-75
HOP-92 = tested on: HOP-92
NCI-H460 = tested on: NCI-H460
LOX IMVI = tested on: LOX IMVI
BT-549 = tested on: BT-549
KM12 = tested on: KM12
SK-MEL-5 = tested on: SK-MEL-5
OVCAR-3 = tested on: OVCAR-3
SW-620 = tested on: SW-620
HCC 2998 = tested on: HCC 2998
OVCAR-8 = tested on: OVCAR-8
SF-268 = tested on: SF-268
SNB-19 = tested on: SNB-19
SN12C = tested on: SN12C
MDA-MB-231 = tested on: MDA-MB-231
Hs-578T = tested on: Hs-578T

Measured: GI50

CO/N=C\c1cc(O)c(O)c(/C=N/OC)c1
inactive: OVCAR-5 > 100 µM | MOLT-4 8.17 µM | IGROV-1 27.4 µM | SNB-75 87.5 µM | HOP-92 61.1 µM | NCI-H460 23.1 µM | LOX IMVI 41.3 µM | BT-549 > 100 µM | KM12 38.8 µM | SK-MEL-5 55.7 µM | OVCAR-3 4.82 µM | SW-620 36.6 µM | HCC 2998 32.8 µM | OVCAR-8 23.4 µM | SF-268 10.9 µM | SNB-19 59.6 µM | SN12C 12.8 µM | MDA-MB-231 36.1 µM | Hs-578T 12.6 µM

CC(=O)c1ccccc1NS(=O)(=O)c1ccc2nc(C)n(NS(=O)(=O)c3ccccc3C(C)=O)c(=O)c2c1
inactive: OVCAR-5 > 100 µM | MOLT-4 > 100 µM | IGROV-1 > 100 µM | SNB-75 > 100 µM | HOP-92 > 100 µM | NCI-H460 > 100 µM | LOX IMVI > 100 µM | BT-549 > 100 µM | KM12 > 100 µM | SK-MEL-5 > 100 µM | OVCAR-3 > 100 µM | SW-620 > 100 µM | HCC 2998 > 100 µM | OVCAR-8 > 100 µM | SF-268 > 100 µM | SNB-19 > 100 µM | SN12C > 100 µM | MDA-MB-231 > 100 µM | Hs-578T > 100 µM

Cc1cc(NC(=O)C(=O)Cc2cnc3ccccc3n2)c(S(=O)(=O)O)cc1Cl
inactive: OVCAR-5 > 100 µM | MOLT-4 > 100 µM | IGROV-1 > 100 µM | SNB-75 > 100 µM | HOP-92 > 100 µM | NCI-H460 > 100 µM | LOX IMVI > 100 µM | BT-549 > 100 µM | KM12 > 100 µM | SK-MEL-5 > 100 µM | OVCAR-3 > 100 µM | SW-620 > 100 µM | HCC 2998 > 100 µM | OVCAR-8 > 100 µM | SF-268 > 100 µM | SNB-19 > 100 µM | SN12C > 100 µM | MDA-MB-231 > 100 µM | Hs-578T > 100 µM

CC(=O)c1c(SCCN2CCCCCC2)n(-c2ccccc2)c(=S)n(-c2ccccc2)c1=O
inactive: OVCAR-5 24.4 µM | MOLT-4 2.16 µM | IGROV-1 8.3 µM | SNB-75 13.8 µM | HOP-92 6.53 µM | NCI-H460 24.7 µM | LOX IMVI 3.16 µM | BT-549 16.6 µM | KM12 18.6 µM | SK-MEL-5 9.68 µM | OVCAR-3 3.13 µM | SW-620 2.04 µM | HCC 2998 4.3 µM | OVCAR-8 10.7 µM | SF-268 11 µM | SNB-19 51.1 µM | SN12C 5.92 µM | MDA-MB-231 14.4 µM | Hs-578T 17.7 µM

CN(C)CCCCN1c2ccccc2Sc2ccc(C(=O)c3ccccc3)cc21
inactive: OVCAR-5 5.64 µM | MOLT-4 2.21 µM | IGROV-1 2.9 µM | SNB-75 2.34 µM | HOP-92 2.44 µM | NCI-H460 2.24 µM | LOX IMVI 1.8 µM | BT-549 6.01 µM | KM12 2.02 µM | SK-MEL-5 1.82 µM | OVCAR-3 3.98 µM | SW-620 1.77 µM | HCC 2998 1.83 µM | OVCAR-8 3.33 µM | SF-268 5.6 µM | SNB-19 4.06 µM | SN12C 3.11 µM | MDA-MB-231 2.11 µM | Hs-578T 2.22 µM

NC(Cc1ncccn1)C(=O)O (configuration not stated)
inactive: OVCAR-5 > 100 µM | MOLT-4 > 100 µM | IGROV-1 > 100 µM | SNB-75 > 100 µM | HOP-92 > 100 µM | NCI-H460 > 100 µM | LOX IMVI > 100 µM | BT-549 > 100 µM | KM12 > 100 µM | SK-MEL-5 > 100 µM | OVCAR-3 > 100 µM | SW-620 > 100 µM | HCC 2998 > 100 µM | OVCAR-8 > 100 µM | SF-268 > 100 µM | SNB-19 > 100 µM | SN12C > 100 µM | MDA-MB-231 > 100 µM | Hs-578T > 100 µM

CC(/C=C/C=C/C=C/C=C/C=C/C(=O)C1=C(O)C(CCC(=O)O)N(C)C1=O)=C\C(C)C(OC1CC(O)C(O)C(C)O1)C(C)C (configuration not stated)
inactive: OVCAR-5 2.27 µM | MOLT-4 2.82 µM | IGROV-1 1.82 µM | SNB-75 3.89 µM | HOP-92 2.72 µM | NCI-H460 2.96 µM | LOX IMVI 3.44 µM | BT-549 2.11 µM | KM12 1.88 µM | SK-MEL-5 1.91 µM | OVCAR-3 1.98 µM | SW-620 4.13 µM | HCC 2998 2.15 µM | OVCAR-8 3.74 µM | SF-268 2.84 µM | SNB-19 2.81 µM | SN12C 3.33 µM | MDA-MB-231 2.9 µM | Hs-578T 5.85 µM

O=C(c1cccs1)N1CCN(C(=O)c2cccs2)C1=S
inactive: OVCAR-5 16 µM | MOLT-4 3.24 µM | IGROV-1 6.7 µM | SNB-75 2.28 µM | HOP-92 7.19 µM | NCI-H460 6.75 µM | LOX IMVI 2.86 µM | BT-549 5.4 µM | KM12 3.23 µM | SK-MEL-5 4.59 µM | OVCAR-3 2.94 µM | SW-620 5.01 µM | HCC 2998 7.96 µM | OVCAR-8 5.32 µM | SF-268 5.28 µM | SNB-19 12.4 µM | SN12C 2.95 µM | MDA-MB-231 6.38 µM | Hs-578T 10.7 µM
